This note sets out measurements from PubChem BioAssay AID248 (DTP/NCI, 2004).

Structures are written as SMILES. Several values for one entry are separate records, joined by “and”; a condition that tells them apart may be missing. Identical values can stand only once. Inconclusive results and toxic doses are left out.

The test has as its system L1210 leukemia ip in BDF1 mice, survival T/C. Description: NCI In Vivo Anticancer Drug Screen. Data for tumor model L1210 Leukemia (intraperitoneal) in B6D2F1 (BDF1) mice. The conditions noted are these: endpoint: mean survival time, higher = longer survival. The gist of the method: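 Mice bearing the transplanted tumor received compound or vehicle. Survival of the treated group was divided by that of the vehicle-treated control group to give the ratio.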

The mark [1] stands for this setting: dose: 50.0 mg/kg/injection, schedule: Q01DX009 (ip), vehicle: saline.
Setting [2] is: dose: 100.0 mg/kg/injection, schedule: Q01DX009 (ip), vehicle: saline.
Where [3] appears, read: dose: 100.0 mg/kg/injection, schedule: Q04DX003 (ip), vehicle: saline.
[4] abbreviates: dose: 200.0 mg/kg/injection, schedule: Q04DX003 (ip), vehicle: saline.
Where [5] appears, read: dose: 100.0 mg/kg/injection, schedule: Q04DX002 (ip), vehicle: saline.
Where [6] appears, read: dose: 200.0 mg/kg/injection, schedule: Q04DX002 (ip), vehicle: saline.
Where [7] appears, read: dose: 400.0 mg/kg/injection, schedule: Q04DX002 (ip), vehicle: saline.
Setting [8] is: dose: 100.0 mg/kg/injection, schedule: Q01DX001 (ip), vehicle: saline.
The mark [9] stands for this setting: dose: 100.0 mg/kg/injection, schedule: Q04DX003 (ip), vehicle: Klucel (hydroxypropylcellulose) (HPC).
[10] abbreviates: dose: 200.0 mg/kg/injection, schedule: Q01DX001 (ip), vehicle: saline.
[11] abbreviates: dose: 100.0 mg/kg/injection, schedule: Q01DX001 (ip), vehicle: carboxymethylcellulose (CMC).
[12] abbreviates: dose: 200.0 mg/kg/injection, schedule: Q01DX001 (ip), vehicle: carboxymethylcellulose (CMC).
Where [13] appears, read: dose: 400.0 mg/kg/injection, schedule: Q01DX001 (ip), vehicle: carboxymethylcellulose (CMC).

Regarding `COc1cc(NC(=O)N(CCCl)N=O)cc(OC)c1OC`, the T/C was 105 % of control (dose: 0.12 mg/kg/injection, schedule: Q01DX009 (ip), vehicle: saline); 118 % of control (dose: 0.25 mg/kg/injection, schedule: Q01DX009 (ip), vehicle: saline); 112 % of control (dose: 0.5 mg/kg/injection, schedule: Q01DX009 (ip), vehicle: saline); 115 % of control (dose: 1.0 mg/kg/injection, schedule: Q01DX009 (ip), vehicle: saline); 111 % of control (dose: 1.5 mg/kg/injection, schedule: Q01DX001 (ip), vehicle: carboxymethylcellulose (CMC)); 161 % of control (dose: 2.5 mg/kg/injection, schedule: Q01DX009 (ip), vehicle: saline). For the same compound, the T/C is 108 % of control (dose: 3.0 mg/kg/injection, schedule: Q01DX001 (ip), vehicle: carboxymethylcellulose (CMC)); 177 % of control (dose: 5.0 mg/kg/injection, schedule: Q01DX009 (ip), vehicle: saline); 118 % of control (dose: 6.0 mg/kg/injection, schedule: Q01DX001 (ip), vehicle: carboxymethylcellulose (CMC)); 164 % of control (dose: 10.0 mg/kg/injection, schedule: Q01DX009 (ip), vehicle: saline); 157 % of control and 216 % of control (dose: 11.0 mg/kg/injection, schedule: Q01DX009 (ip), vehicle: saline with Tween-80); 151 % of control (dose: 12.0 mg/kg/injection, schedule: Q01DX001 (ip), vehicle: carboxymethylcellulose (CMC)). Further, the T/C is, setting by setting: (dose: 15.0 mg/kg/injection, schedule: Q01DX009 (ip), vehicle: saline) 164 % of control; (dose: 16.6 mg/kg/injection, schedule: Q01DX009 (ip), vehicle: saline with Tween-80) 223 % of control; (dose: 22.0 mg/kg/injection, schedule: Q01DX009 (ip), vehicle: saline) 216 % of control; (dose: 25.0 mg/kg/injection, schedule: Q01DX001 (ip), vehicle: carboxymethylcellulose (CMC)) 252 % of control; (dose: 25.0 mg/kg/injection, schedule: Q01DX001 (ip), vehicle: saline) 155 % of control; (dose: 25.0 mg/kg/injection, schedule: Q01DX009 (ip), vehicle: saline with Tween-80) 208 % of control. For the same compound, the T/C is 178 % of control (dose: 33.0 mg/kg/injection, schedule: Q01DX009 (ip), vehicle: saline); 153 % of control (dose: 37.5 mg/kg/injection, schedule: Q01DX001 (ip), vehicle: saline); 110 % of control (dose: 37.5 mg/kg/injection, schedule: Q01DX009 (ip), vehicle: saline with Tween-80); 106 % of control (dose: 50.0 mg/kg/injection, schedule: Q01DX001 (ip), vehicle: carboxymethylcellulose (CMC)); 260 % of control under setting [1]; 236 % of control (dose: 75.0 mg/kg/injection, schedule: Q01DX001 (ip), vehicle: carboxymethylcellulose (CMC)). In addition, under “dose: 75.0 mg/kg/injection, schedule: Q01DX009 (ip), vehicle: saline”, the T/C was 173 % of control.

As to `C[N+]1=COCC1(C)C`, the T/C reads like this: under setting [2], 104 % of control; under setting [3], 99 % of control; (dose: 200.0 mg/kg/injection, schedule: Q01DX009 (ip), vehicle: saline) 101 % of control; under setting [4], 94 % of control; (dose: 400.0 mg/kg/injection, schedule: Q01DX009 (ip), vehicle: saline) 115 % of control; (dose: 400.0 mg/kg/injection, schedule: Q04DX003 (ip), vehicle: saline) 97 % of control.

As for `CCCCCCN1CCCC(OC(=O)N(C)C)C1` (stereo unspecified), the T/C by setting is: (dose: 25.0 mg/kg/injection, schedule: Q04DX002 (ip), vehicle: saline) 113 % of control; (dose: 50.0 mg/kg/injection, schedule: Q04DX002 (ip), vehicle: saline) 103 % of control; under setting [5], 100 % of control and 104 % of control.

For `CCC1C(=O)OC2(CO)C(=O)N(C)CCC12` (stereo unspecified), the T/C is, setting by setting: (dose: 15.6 mg/kg/injection, schedule: Q01DX001 (ip), vehicle: saline) 103 % of control; (dose: 31.3 mg/kg/injection, schedule: Q01DX001 (ip), vehicle: saline) 103 % of control; (dose: 62.5 mg/kg/injection, schedule: Q01DX001 (ip), vehicle: saline) 91 % of control; (dose: 125.0 mg/kg/injection, schedule: Q01DX001 (ip), vehicle: saline) 94 % of control.

Consider `CCCCCOC(c1ccc2c(c1)OCO2)C(C)Br` (stereo unspecified), for which the T/C by setting is: under setting [5], 96 % of control; under setting [6], 104 % of control; under setting [7], 90 % of control.

For `Cc1ccc(S(=O)(=O)NS(=O)(=O)c2ccc(C)cc2)cc1`, the T/C by setting is: under setting [8], 101 % of control; under setting [9], 100 % of control; under setting [10], 106 % of control.

`COC(=S)S`: the T/C was 108 % of control under setting [8]; 108 % of control under setting [10]; 105 % of control (dose: 400.0 mg/kg/injection, schedule: Q01DX001 (ip), vehicle: saline).

For the compound `NC1Cc2ccccc2C1`, the T/C is 98 % of control (dose: 12.5 mg/kg/injection, schedule: Q01DX009 (ip), vehicle: saline); 110 % of control and 93 % of control (dose: 25.0 mg/kg/injection, schedule: Q01DX009 (ip), vehicle: saline); 104 % of control (dose: 25.0 mg/kg/injection, schedule: Q04DX003 (ip), vehicle: saline); 92 % of control and 95 % of control under setting [1]; 109 % of control (dose: 50.0 mg/kg/injection, schedule: Q04DX003 (ip), vehicle: saline); 106 % of control and 92 % of control under setting [2]. Further, the T/C runs as follows: under setting [3], 96 % of control; under setting [4], 92 % of control.

With `Cc1ccc(S(=O)(=O)OCCCCl)cc1`, the T/C under setting [11] is 112 % of control, the T/C under setting [12] is 106 % of control and the T/C under setting [13] was 101 % of control.

Regarding `Cc1scc[n+]1C`, the T/C is 104 % of control (dose: 75.0 mg/kg/injection, schedule: Q01DX001 (ip), vehicle: saline); 102 % of control (dose: 150.0 mg/kg/injection, schedule: Q01DX001 (ip), vehicle: saline); 107 % of control (dose: 300.0 mg/kg/injection, schedule: Q01DX001 (ip), vehicle: saline).

For `O=S(=O)(Nc1cc(C(F)(F)F)ccc1Cl)c1ccc(Cl)cc1`, the T/C reads like this: under setting [5], 90 % of control; under setting [6], 106 % of control; under setting [7], 97 % of control.

As to `ClCCN1CCOC1=Nc1ccccc1`, the T/C (dose: 100.0 mg/kg/injection, schedule: Q01DX001 (ip), vehicle: other) is 105 % of control; the T/C (dose: 200.0 mg/kg/injection, schedule: Q01DX001 (ip), vehicle: other) was 105 % of control; the T/C (dose: 400.0 mg/kg/injection, schedule: Q01DX001 (ip), vehicle: other) was 100 % of control.

On to `FC1=C(F)C2(F)C3CCC(O3)C2(F)C(Br)=C1F` (stereo unspecified), for which the T/C is 99 % of control (dose: 100.0 mg/kg/injection, schedule: Q01DX001 (ip), vehicle: Klucel (hydroxypropylcellulose) (HPC)); 101 % of control under setting [9]; 91 % of control (dose: 200.0 mg/kg/injection, schedule: Q01DX001 (ip), vehicle: Klucel (hydroxypropylcellulose) (HPC)); 101 % of control (dose: 200.0 mg/kg/injection, schedule: Q04DX003 (ip), vehicle: Klucel (hydroxypropylcellulose) (HPC)); 100 % of control (dose: 400.0 mg/kg/injection, schedule: Q01DX001 (ip), vehicle: Klucel (hydroxypropylcellulose) (HPC)); 98 % of control (dose: 400.0 mg/kg/injection, schedule: Q04DX003 (ip), vehicle: Klucel (hydroxypropylcellulose) (HPC)).

`COC(=O)C(Br)C(Br)c1cc(OC)c(OC)c(OC)c1` (stereo unspecified): the T/C reads like this: under setting [11], 89 % of control; under setting [12], 93 % of control; under setting [13], 103 % of control.
